Where two headings read alike, the source gives them in different places.
Test system: egg-nidation in rats
Experiment: Nidation inhibition in rats (egg-nidation inhibitory action, indirect measure of anti-prolactin activity)
Format: in vivo, Sprague Dowley rats
Conditions: Rattus norvegicus, po, read-out: Nidation inhibition in rats, ED50
Method: Pregnant Sprague Dowley rats weighing 200-250 g were used. The compounds to be tested, dissolved in diluted mineral acids, were administered orally to groups from six to eight rats on day 5 of pregnancy. The animals were sacrificed on day 14 and the uteri were examined. The absence of implantation sites was taken as the criterion of anti-prolactin activity. Several doses were tested for the ED50 evaluation. As reference standard Bromocryptine was used.

[1] = pregnant rats, given on day 5 of pregnancy, absence of implantation sites on day 14

SMILES	ED50	ED50 [1]
CC(C)C[C@H]1C(=O)N2CCC[C@H]2[C@]2(O)O[C@](NC(=O)[C@@H]3C=C4c5cccc6[nH]c(Br)c(c56)C[C@H]4N(C)C3)(C(C)C)C(=O)N12 [2-bromo-α-ergocryptine, reference compound]	5.7 mg/kg	–
Cc1cc(NC(=O)[C@@H]2C[C@@H]3c4cccc5[nH]cc(c45)C[C@H]3N(C)C2)nc(C)n1 [Example 1, N-(2', 6'-dimethyl-4'-pyrimidyl)-6-methylergoline-8β-carboxamide]	–	1.8 mg/kg
Cc1cc(NC(=O)[C@@H]2C[C@@H]3c4cccc5[nH]c(C)c(c45)C[C@H]3N(C)C2)nc(C)n1 [Example 4, N-(2',6'-dimethyl-4'-pyrimidyl)-2,6-dimethylergoline-8β-carboxamide]	–	0.5 to 1 mg/kg
CCCN1C[C@H](C(=O)Nc2cc(C)nc(C)n2)C[C@@H]2c3cccc4[nH]cc(c34)C[C@H]21 [Example 5, N-(2',6'-dimethyl-4'-pyrimidyl)-6-propylergoline-8β-carboxamide]	–	0.3 mg/kg
